Measured values published in US9162992B2, “Compounds and compositions for treatment of breathing control disorders or diseases” (GALLEON PHARMACEUTICALS, INC., priority 2010, dated 2015).
Counter-ions that a name gives are not always drawn.

Test system: spontaneously breathing rats
Experiment: Minute ventilation (MV) and cardiovascular parameters in naive rats
Type: in vivo, rat
Design: unit not given here
Method: All surgical procedures were performed under anesthesia induced by 2% isoflurane in compressed medical grade air. With rats in supine position, the right femoral vein was catheterized using polyethylene tubing (PE-50). This catheter was used for fluid and drug administration. Simultaneously, the right femoral artery was also catheterized for monitoring blood pressure and heart rate. In order to measure the respiratory parameters in spontaneously breathing rats, trachea was intubated using 13 gauge tracheal tube (2.5 mm ID, Instech Solomon, Pa.).
After establishing a stable base-line at 1.5% isoflurane, compounds (typically at a dose of 1 mpk) were administered IV, and ventilatory parameters were generated from spontaneously breathing rats, along with cardiovascular output (mean arterial pressure (MAP) and heart rate). Maximum peak minute ventilatory (MV) responses (MPR), along with changes in minute ventilation versus baseline (AMV) were obtained as shown in the tables below.

[1] = 1 mpk IV, 20% HPβCD, pH not given
[2] = Table 8, 1 mpk, 20% HPβCD, pH 4
[3] = Table 8, 1 mpk, 20% HPβCD, pH 4.5

Structure (SMILES) | MV MPR (1 mpk IV, 20% HPβCD, pH 4-6) | MV ΔMV (1 mpk IV, 20% HPβCD, pH 4-6) | MV MPR (1 mpk IV, 20% HPβCD, pH 4) | MV ΔMV (1 mpk IV, 20% HPβCD, pH 4) | other results
CON(C)c1nc(NCC(C)C)nc(NCC(C)C)n1 [XXIX, N-(Bis-4,6-(2-methylpropylamino)) [1,3,5]triazin-2-yl)-N,O-dimethyl-hydroxylamine hydrochloride] | 253 | 161 | – | – | –
CCNc1nc(NCC)nc(N(C)OC)n1 [XXII, N-(4,6-Bis-ethylamino-[1,3,5]triazin-2-yl)-N,O-dimethyl-hydroxylamine hydrochloride] | 252 | 130 | – | – | –
CCCNc1nc(N(C)OC)c2cc[nH]c2n1 [CXLI, N-(2-Propylamino-7H-pyrrolo[2,3d]pyrimidin-4-yl)-N,O-dimethyl-hydroxylamine] | 264 | 163 | – | – | –
CCCNc1nc(NCCC)nc(N(C)OC(C)C)n1 [LXIV, N-(4,6-Bis-n-propylamino-[1,3,5]triazin-2-yl)-O-isopropyl-N-methyl-hydroxylamine] | – | – | – | – | MV MPR [1]: 271; MV ΔMV [1]: 209
CON(C)c1nc(NCC(C)(C)C)nc(NCC(C)(C)C)n1.Cl [XXXI] | – | – | – | – | MV DMV [2]: 43; MV MPR [2]: 140
CNc1nc(NC)nc(N(C)OC)n1 [XX, N-(4,6-Bis-methylamino-[1,3,5]triazin-2-yl)-N,O-dimethyl-hydroxylamine hydrochloride] | 213 | 60 | – | – | –
C=CCNc1nc(NOC)c2ccn(C)c2n1 [CLX, N-(2-(Propen-2-yl)amino-7-methyl-pyrrolo[2,3d]pyrimidin-4-yl)-O-methyl-hydroxylamine] | – | – | – | – | MV MPR (1 mpk IV, 20% HPβCD, pH 5): 182; MV ΔMV (1 mpk IV, 20% HPβCD, pH 5): 103
CCCNc1nc(NCCC)nc(N(C)OCC(C)C)n1 [LXXXII, N-(4,6-Bis-n-propylamino-[1,3,5]triazin-2-yl)-O-isobutyl-N-methyl-hydroxylamine] | – | – | 248 | 133 | MV DMV [2]: 133; MV MPR [2]: 248
CCCNc1nc2c(c(N3CCC(O)CC3)n1)CCN2C [CLII, 2-(n-Propyl)amino-4-(4-hydroxypiperidin-1-yl)-7-methyl-pyrrolidino[2,3-d]pyrimidine] | – | – | 49 | 0.33 | –
CON(C)c1nc2nc(n1)NCCOCCOCCOCCN2 [CXVII, N-(5,8,11-Trioxa-2,14,16,18,19-pentaazabicyclo[13.3.1]nonadeca-1(18),15 (19),16(17)-trien-17-yl)-N,O-dimethylhydroxylamine] | – | – | – | – | MV DMV [3]: 15; MV MPR [3]: 143.8
CCCNc1nc(NC(C)C)c2cc[nH]c2n1 [N^4-isopropyl-N^2-n-propyl-7H-pyrrolo[2,3-d]pyrimidine-2,4-diamine] | – | – | 259 | 172 | –
CCCNc1nc(NCCC)nc(N(C)OCc2cccs2)n1 [LXXXIV, 6-(Methyl(thiophen-2-ylmethoxy)amino)-N^2,N^4-di-n-propyl-1,3,5-triazine-2,4-diamine] | – | – | 213 | 110 | MV DMV [2]: 110; MV MPR [2]: 213
CCCNc1nc(NC)c2c(n1)N(C)CC2 [CXXXI, 2-(n-Propyl)amino-4-methylamino-7-methyl-pyrrolidino[2,3-d]pyrimidine] | – | – | 204 | 130 | –
CCCNc1nc(NCCC)nc(N(C)OCc2ccccc2)n1 [LIII, O-Benzyl-N-(4,6-bis-n-propylamino-[1,3,5]triazin-2-yl)-N-methyl-hydroxylamine] | 288 | 179 | – | – | –
CCCNc1nc(N(C)N(C)C)c2ccn(C)c2n1 [7-methyl-N-n-propyl-4-(1,2,2-trimethylhydrazinyl)-7H-pyrrolo[2,3-d]pyrimidin-2-amine] | – | – | 175 | 83 | MV MPR (1 mpk IV, 15/65/20, pH 5): 167; MV ΔMV (1 mpk IV, 15/65/20, pH 5): 89
CCCNc1cc(N(C)OC)nc(NCCC)n1 [CXX] | 355 | 243 | – | – | MV DMV [3]: 243; MV MPR [3]: 355
CCCNc1nc(NCCC)nc(N(C)NC)n1 [XLIX, N-(4,6-Bis-n-propylamino-[1,3,5]triazin-2-yl)-N,N′-dimethyl-hydrazine] | – | – | – | – | MV MPR (1 mpk IV, 20% HPβCD, pH 5): 338; MV ΔMV (1 mpk IV, 20% HPβCD, pH 5): 216
